Laboratory results published in article PMC6315564, “Geospallins A–C: New Thiodiketopiperazines with Inhibitory Activity against Angiotensin-Converting Enzyme from a Deep-Sea-Derived Fungus Geosmithia pallida FS140” (Marine Drugs, 2018).

Target: angiotensin-converting enzyme (ACE) (Homo sapiens, UniProt P12821)
Assay: Angiotensin-converting enzyme (ACE) inhibitory assay (N-hippuryl-His-Leu substrate, HPLC detection of hippuric acid)
Assay type: biochemical
Settings: 37 °C, 60 min, captopril positive control, read-out: IC50 against angiotensin-converting enzyme (ACE)
Description: ACE inhibitory activity was determined by a previously reported method. In brief, 20 μL thiodiketopiperazines dissolved in DMSO with different concentrations were added to 120 μL N-hippuryl–His–Leu substrates, then preheated in water for 3–5 min; next, 10 μL ACE enzymatic solution was added and mixtures were incubated at 37 °C for 60 min, and 150 μL 1 M HCl was added to stop the reaction. The mixture was loaded for HPLC with a flow rate of 0.5 mL/min by 60% methanol, and the absorbance at 228 nm was detected. To serve as a blank, 10 μL pH 8.3 boric acid replaced the thiodiketopiperazines. Hippuric acid solutions at 10, 20, 40, 60, 80, and 100 μg/mL were prepared using 10 μL pH 8.3 boric acid. One enzymatic unit was defined as the amount giving the production of 1 μM hippuric acid by the catalyzation of the substrate N-hippuryl–His–Leu at 37 °C in 1 min. Captopril was used as a positive control.

Sequence of angiotensin-converting enzyme (ACE) (P12821 30-1306, species assumed): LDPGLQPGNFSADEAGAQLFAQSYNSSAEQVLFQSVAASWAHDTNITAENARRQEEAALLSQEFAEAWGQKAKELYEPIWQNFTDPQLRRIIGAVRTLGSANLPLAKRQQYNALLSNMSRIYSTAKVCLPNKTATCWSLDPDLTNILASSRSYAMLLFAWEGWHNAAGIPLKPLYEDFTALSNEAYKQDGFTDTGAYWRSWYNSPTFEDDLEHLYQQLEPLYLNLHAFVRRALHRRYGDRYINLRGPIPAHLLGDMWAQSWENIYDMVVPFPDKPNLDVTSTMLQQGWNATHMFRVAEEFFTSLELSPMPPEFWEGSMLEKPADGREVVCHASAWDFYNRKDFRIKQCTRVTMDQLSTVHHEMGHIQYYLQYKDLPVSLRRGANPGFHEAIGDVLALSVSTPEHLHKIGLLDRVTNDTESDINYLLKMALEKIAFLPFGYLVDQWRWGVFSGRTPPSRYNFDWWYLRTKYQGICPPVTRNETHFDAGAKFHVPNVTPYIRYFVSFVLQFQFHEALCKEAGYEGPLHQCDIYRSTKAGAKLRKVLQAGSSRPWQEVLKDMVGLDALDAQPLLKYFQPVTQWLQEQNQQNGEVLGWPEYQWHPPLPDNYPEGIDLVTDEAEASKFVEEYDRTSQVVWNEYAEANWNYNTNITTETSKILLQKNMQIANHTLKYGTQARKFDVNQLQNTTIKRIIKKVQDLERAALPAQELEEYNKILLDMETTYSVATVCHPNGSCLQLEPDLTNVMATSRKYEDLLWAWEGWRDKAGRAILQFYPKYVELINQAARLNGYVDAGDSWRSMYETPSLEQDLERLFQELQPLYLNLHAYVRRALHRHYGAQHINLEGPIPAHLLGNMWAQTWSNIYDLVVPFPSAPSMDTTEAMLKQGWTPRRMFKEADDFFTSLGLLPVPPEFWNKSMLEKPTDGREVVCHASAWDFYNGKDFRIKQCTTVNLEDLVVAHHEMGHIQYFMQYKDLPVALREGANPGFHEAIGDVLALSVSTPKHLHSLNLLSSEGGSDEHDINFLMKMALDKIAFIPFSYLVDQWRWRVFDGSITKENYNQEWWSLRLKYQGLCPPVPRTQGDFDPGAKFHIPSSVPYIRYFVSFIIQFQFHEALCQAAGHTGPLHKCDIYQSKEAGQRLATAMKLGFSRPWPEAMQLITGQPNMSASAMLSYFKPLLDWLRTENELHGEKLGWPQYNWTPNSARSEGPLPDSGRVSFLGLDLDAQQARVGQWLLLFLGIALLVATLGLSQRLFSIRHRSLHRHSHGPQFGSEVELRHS

Structure (SMILES) | IC50 [µM]
CSC1C=CC(OC(C)=O)C2N3C(=O)C(CO)(SC)N(C)C(=O)C3(O)CC12O (stereo not drawn) [Compound 2, geospallin B] | 31 ± 3.3
COC12CC3(O)C(SC)C=CC(OC(C)=O)C3N1C(=O)C(CO)(SC)N(C)C2=O (stereo not drawn) [Compound 1, geospallin A] | 35 ± 5.2
CSC1(CO)C(=O)N2C3C(OC(C)=O)C(=O)C=CC3(O)CC2(SC)C(=O)N1C (stereo not drawn) [Compound 3, geospallin C] | 29 ± 3.3
